Measured values taken from PubChem BioAssay AID248 (DTP/NCI, 2004).
Toxic doses and inconclusive results are not listed. Cut-off read from the data, not from the text of the source: active = T/C of 150% or more; inactive = T/C below 125%.

System: L1210 leukemia ip in BDF1 mice, survival T/C
Experiment: NCI In Vivo Anticancer Drug Screen. Data for tumor model L1210 Leukemia (intraperitoneal) in B6D2F1 (BDF1) mice
Conditions: endpoint: mean survival time, higher = longer survival
Outline: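 Each compound was tested against a transplantable tumor grown in mice. The endpoint was survival, with treated animals benchmarked against vehicle controls as a simple ratio.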

[1] = dose: 100.0 mg/kg/injection, schedule: Q01DX001 (ip), vehicle: Klucel (hydroxypropylcellulose) (HPC)
[2] = dose: 200.0 mg/kg/injection, schedule: Q01DX001 (ip), vehicle: Klucel (hydroxypropylcellulose) (HPC)
[3] = dose: 400.0 mg/kg/injection, schedule: Q01DX001 (ip), vehicle: Klucel (hydroxypropylcellulose) (HPC)
[4] = dose: 100.0 mg/kg/injection, schedule: Q01DX009 (ip), vehicle: Klucel (hydroxypropylcellulose) (HPC)
[5] = dose: 100.0 mg/kg/injection, schedule: Q04DX003 (ip), vehicle: Klucel (hydroxypropylcellulose) (HPC)
[6] = dose: 200.0 mg/kg/injection, schedule: Q01DX009 (ip), vehicle: Klucel (hydroxypropylcellulose) (HPC)
[7] = dose: 200.0 mg/kg/injection, schedule: Q04DX003 (ip), vehicle: Klucel (hydroxypropylcellulose) (HPC)
[8] = dose: 400.0 mg/kg/injection, schedule: Q01DX009 (ip), vehicle: Klucel (hydroxypropylcellulose) (HPC)
[9] = dose: 400.0 mg/kg/injection, schedule: Q04DX003 (ip), vehicle: Klucel (hydroxypropylcellulose) (HPC)
[10] = dose: 100.0 mg/kg/injection, schedule: Q04DX003 (ip), vehicle: saline with Tween-80
[11] = dose: 200.0 mg/kg/injection, schedule: Q04DX003 (ip), vehicle: saline with Tween-80
[12] = dose: 100.0 mg/kg/injection, schedule: Q01DX009 (ip), vehicle: saline
[13] = dose: 200.0 mg/kg/injection, schedule: Q01DX009 (ip), vehicle: saline
[14] = dose: 50.0 mg/kg/injection, schedule: Q01DX009 (ip), vehicle: Klucel (hydroxypropylcellulose) (HPC)

Measured: T/C

CC(=O)OC(C)C(=O)Nc1ccccc1 (configuration not stated)
inactive: [1] 93 % of control | [2] 89 % of control | [3] 96 % of control

CCOC(=O)c1ccc(NC(=O)c2cccc(F)c2)cc1
inactive: dose: 100.0 mg/kg/injection, schedule: Q04DX002 (ip), vehicle: saline 91 % of control | dose: 200.0 mg/kg/injection, schedule: Q04DX002 (ip), vehicle: saline 105 % of control | dose: 400.0 mg/kg/injection, schedule: Q04DX002 (ip), vehicle: saline 109 % of control

CC(=O)CC(=O)N1CCC(C)CC1
inactive: [4] 96 % of control | [5] 103 % of control | [6] 100 % of control | [7] 101 % of control | [8] 95 % of control | [9] 101 % of control

Cc1ccc(COC(=O)c2ccccc2)cc1
inactive: [4] 101 % of control | [5] 103 % of control | [6] 98 % of control | [7] 97 % of control | [8] 95 % of control | [9] 97 % of control

COc1ccc(C2=NNC(c3ccc(OC)cc3)=NN2)cc1
inactive: dose: 100.0 mg/kg/injection, schedule: Q01DX001 (ip), vehicle: other 104 % of control | dose: 200.0 mg/kg/injection, schedule: Q01DX001 (ip), vehicle: other 96 % of control | dose: 400.0 mg/kg/injection, schedule: Q01DX001 (ip), vehicle: other 93 % of control

Nc1ccc2sc3ccccc3c2c1
inactive: dose: 50.0 mg/kg/injection, schedule: Q01DX009 (ip), vehicle: saline with Tween-80 106 % of control | dose: 100.0 mg/kg/injection, schedule: Q01DX009 (ip), vehicle: saline with Tween-80 105 % of control | [10] 95 % of control | [11] 104 % of control

Cc1ccc2nsnc2c1[N+](=O)[O-]
inactive: dose: 100.0 mg/kg/injection, schedule: Q04DX002 (ip), vehicle: Klucel (hydroxypropylcellulose) (HPC) 107 % of control | dose: 200.0 mg/kg/injection, schedule: Q04DX002 (ip), vehicle: Klucel (hydroxypropylcellulose) (HPC) 118 % of control | dose: 400.0 mg/kg/injection, schedule: Q04DX002 (ip), vehicle: Klucel (hydroxypropylcellulose) (HPC) 102 % of control

Cc1ccc(NC(=O)Nc2cccc(C(F)(F)F)c2)cc1C
inactive: [4] 98 % of control | [6] 98 % of control | [8] 91 % of control

CC(S)CN1CC1 (configuration not stated)
inactive: [5] 107 % of control | [7] 105 % of control

CN(C)CCC#N
inactive: dose: 50.0 mg/kg/injection, schedule: Q01DX001 (ip), vehicle: saline 97 % of control | dose: 50.0 mg/kg/injection, schedule: Q01DX009 (ip), vehicle: saline 106 % of control | dose: 100.0 mg/kg/injection, schedule: Q01DX001 (ip), vehicle: saline 97 % of control | [12] 108 % of control | dose: 100.0 mg/kg/injection, schedule: Q04DX003 (ip), vehicle: saline 100 % of control | dose: 200.0 mg/kg/injection, schedule: Q01DX001 (ip), vehicle: saline 100 % of control | [13] 112 % of control | dose: 200.0 mg/kg/injection, schedule: Q04DX003 (ip), vehicle: saline 100 % of control | dose: 400.0 mg/kg/injection, schedule: Q01DX001 (ip), vehicle: saline 97 % of control

CCCCNC(=O)NS(=O)(=O)c1ccc(CCl)cc1
inactive: dose: 50.0 mg/kg/injection, schedule: Q04DX003 (ip), vehicle: Klucel (hydroxypropylcellulose) (HPC) 98 % of control | [5] 102 % of control | [7] 100 % of control

O=C1NC(=O)C2CC=CCC12 (configuration not stated)
inactive: [10] 101 % of control | [11] 106 % of control | dose: 400.0 mg/kg/injection, schedule: Q04DX003 (ip), vehicle: saline with Tween-80 106 % of control

c1ccc2sc(SCSc3nc4ccccc4s3)nc2c1
inactive: dose: 50.0 mg/kg/injection, schedule: Q04DX003 (ip), vehicle: saline with Tween-80 93 % of control | [10] 90 % of control | [11] 100 % of control

O=c1cc(-c2ccc(Cl)cc2)oc(-c2ccc(Cl)cc2)c1
inactive: [14] 94 % of control | [4] 93 % of control | [5] 89 % of control | [7] 92 % of control

NNC(=S)N/N=C/c1ccccc1
inactive: [1] 93 % of control | [2] 93 % of control | [3] 100 % of control

Cc1ccc(NC(=O)NCCBr)cc1C
inactive: [5] 96 % of control | [7] 93 % of control | [9] 95 % of control

CN(C)c1ccc(C=Nc2ccc(/C=C3\C=Cc4ccccc43)cc2)cc1
inactive: dose: 50.0 mg/kg/injection, schedule: Q01DX001 (ip), vehicle: carboxymethylcellulose (CMC) 91 % of control | dose: 100.0 mg/kg/injection, schedule: Q01DX001 (ip), vehicle: carboxymethylcellulose (CMC) 93 % of control | dose: 200.0 mg/kg/injection, schedule: Q01DX001 (ip), vehicle: carboxymethylcellulose (CMC) 96 % of control | dose: 400.0 mg/kg/injection, schedule: Q01DX001 (ip), vehicle: carboxymethylcellulose (CMC) 96 % of control

Cn1cc([N+](=O)[O-])c2ccccc2c1=O
inactive: [5] 109 % of control | [7] 120 % of control

CN(C)c1ccc(C(=O)Oc2ccc([N+](=O)[O-])cc2)cc1
inactive: [4] 90 % of control | [5] 95 % of control | [6] 101 % of control | [7] 98 % of control | [8] 102 % of control | [9] 96 % of control

Nc1ccc(CSc2ccc(Cl)cc2)cc1
inactive: dose: 12.5 mg/kg/injection, schedule: Q01DX009 (ip), vehicle: Klucel (hydroxypropylcellulose) (HPC) 94 % of control | dose: 25.0 mg/kg/injection, schedule: Q01DX009 (ip), vehicle: Klucel (hydroxypropylcellulose) (HPC) 97 % of control | [14] 87 % of control | dose: 75.0 mg/kg/injection, schedule: Q01DX009 (ip), vehicle: Klucel (hydroxypropylcellulose) (HPC) 88 % of control | dose: 170.0 mg/kg/injection, schedule: Q01DX009 (ip), vehicle: Klucel (hydroxypropylcellulose) (HPC) 94 % of control

CC(=O)OC1COC(NC(=O)NNc2ccccc2)C(OC(C)=O)C1OC(C)=O (configuration not stated)
inactive: [12] 88 % of control | dose: 100.0 mg/kg/injection, schedule: Q04DX003 (ip), vehicle: water 94 % of control | [13] 92 % of control | dose: 200.0 mg/kg/injection, schedule: Q04DX003 (ip), vehicle: water 97 % of control | dose: 400.0 mg/kg/injection, schedule: Q04DX003 (ip), vehicle: water 96 % of control

Cc1ccc(NC(=S)N(CCC#N)C(C)C)cc1C
inactive: [4] 110 % of control | [6] 106 % of control | [8] 103 % of control

CC(=[N-])CC(C)=O.CC(=[N-])CC(C)=O.[Cu+2]
inactive: dose: 6.25 mg/kg/injection, schedule: Q04DX003 (ip), vehicle: saline with Tween-80 88 % of control | dose: 12.5 mg/kg/injection, schedule: Q04DX003 (ip), vehicle: saline with Tween-80 89 % of control

Cc1ccccc1C(=O)C(=O)c1ccccc1C
inactive: [4] 95 % of control | [6] 106 % of control | [8] 93 % of control

C(=N\Nc1nc2ccccc2s1)/c1ccccc1
inactive: [4] 95 % of control | [6] 102 % of control | [8] 100 % of control

NC(CSSc1ccccc1)=NC1CCCCC1
inactive: dose: 12.5 mg/kg/injection, schedule: Q04DX002 (ip), vehicle: other 98 % of control | dose: 25.0 mg/kg/injection, schedule: Q04DX002 (ip), vehicle: other 109 % of control | dose: 50.0 mg/kg/injection, schedule: Q04DX002 (ip), vehicle: other 91 % of control
